Consider 25 molecules from patent publication US20240246980A1, “MODULATORS OF MAS-RELATED G-PROTEIN RECEPTOR D AND RELATED PRODUCTS AND METHODS” (Escient Pharmaceuticals, Inc., priority 2022, published 2024).

This test has as its target human MRGPRD (Homo sapiens, UniProt Q8TDS7). Put plainly: MRGPRD antagonist activity, IP-One HTRF assay in CHO cells stably expressing human MRGPRD (versus 100 μM β-Alanine agonist). In kind it is cell-based. The essentials: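 Cells (20,000/well, plated overnight) received antagonist and agonist in buffer with 5.7 mM Tris-HCl, 43 mM NaCl and 50 mM LiCl at pH 8. Incubation ran 1 h at 37 °C, then 1 h at room temperature, before IP-1 HTRF detection. IC50 was fitted from the HTRF ratio, and percent antagonism was taken relative to the maximum efficacy response, given as averages with SEM.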
For orientation: Time-resolved FRET reads energy transfer from a long-lived donor to a nearby acceptor.

A value given as a limit tells only on which side of the number the result lay.

Chain of human MRGPRD (Q8TDS7 whole entry): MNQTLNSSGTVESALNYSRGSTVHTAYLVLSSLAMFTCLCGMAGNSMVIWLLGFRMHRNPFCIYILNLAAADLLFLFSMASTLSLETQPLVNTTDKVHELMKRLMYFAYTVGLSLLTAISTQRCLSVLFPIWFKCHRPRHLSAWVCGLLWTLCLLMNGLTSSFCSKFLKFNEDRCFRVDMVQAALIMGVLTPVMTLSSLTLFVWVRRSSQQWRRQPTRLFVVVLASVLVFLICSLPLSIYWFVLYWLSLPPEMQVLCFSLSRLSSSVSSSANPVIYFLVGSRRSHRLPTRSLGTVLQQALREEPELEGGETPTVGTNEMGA

On to `COc1cccc(-c2nc([C@H]3CCCN(S(=O)(=O)c4cccc(F)c4)C3)n3ccccc23)c1` [Compound 16-10], for which the 50% inhibitory concentration (IC50) (commonly the concentration that inhibits the measured activity by half) is 1000 to 3000 nM.

`COc1cccc(-c2nc(C3CCCN(C(=O)Nc4ccccc4F)C3)n3cccc(C)c23)c1` (stereo not shown) [Compound 17-1, N-(2-fluorophenyl)-3-(1-(3-methoxyphenyl)-8-methylimidazo[1,5-a]pyridin-3-yl)piperidine-1-carboxamide] showed an IC50 of 100 to 500 nM.

Turning to `COc1cccc(-c2nc(C3CCCN(C(=O)Nc4ccccc4F)C3)n3ccc(C)cc23)c1` (stereo not shown) [Compound 17-2], the IC50 was in the range of 500 to 1000 nM.

In turn, `COc1cccc(-c2nc(C3CCCN(C(=O)Nc4ccccc4F)C3)n3c(C)cccc23)c1` (stereo not shown) [Compound 17-3] showed an IC50 of 100 to 500 nM.

Turning to `COc1cccc(-c2nc(C3CCCN(C(=O)Nc4ccccc4F)C3)n3cc(C)ccc23)c1` (stereo not shown) [Compound 18-1, N-(2-fluorophenyl)-3-(1-(3-methoxyphenyl)-6-methylimidazo[1,5-a]pyridin-3-yl)piperidine-1-carboxamide], the half-maximal inhibitory concentration (IC50) was in the range of 100 to 500 nM.

Regarding `COc1cccc(-c2nc(C3CCCN(C(=O)Nc4ccccc4F)C3)n3cccc(OC)c23)c1` (stereo not shown) [Compound 19-1], the IC50 is > 3000 nM.

For `COc1cccc(-c2nc(C3CCCN(C(=O)Nc4ccccc4F)C3)n3ccc(OC)cc23)c1` (stereo not shown) [Compound 19-2], the IC50 was > 3000 nM.

`COc1cccc(-c2nc(C3CCCN(C(=O)Nc4ccccc4F)C3)n3cc(OC)ccc23)c1` (stereo not shown) [Compound 19-3, N-(2-fluorophenyl)-3-(6-methoxy-1-(3-methoxyphenyl)imidazo[1,5-a]pyridin-3-yl)piperidine-1-carboxamide] returned an IC50 of 1000 to 3000 nM.

Regarding `COc1cccc(-c2nn([C@@H]3CCCN(C(=O)Nc4ccc(N(C)C)cc4)C3)c3ncccc23)c1` [Compound 20-1, (R)—N-(4-(dimethylamino)phenyl)-3-(3-(3-methoxyphenyl)-1H-pyrazolo[3,4-b]pyridin-1-yl)piperidine-1-carboxamide], the IC50 was < 100 nM.

With `COc1cccc(-c2nn([C@@H]3CCCN(C(=O)Nc4cccc(N(C)C)c4)C3)c3ncccc23)c1` [Compound 20-2], the 50% inhibitory concentration (IC50) was < 100 nM.

The molecule `COc1cccc(-c2nn([C@H]3CCCN(C(=O)Nc4cccc(N(C)C)c4)C3)c3ncccc23)c1` [Compound 20-3] registered a 50% inhibitory concentration (IC50) of 1000 to 3000 nM.

Turning to `COc1cccc(-c2nn([C@H]3CCCN(C(=O)Nc4ccc(N(C)C)cc4)C3)c3ncccc23)c1` [Compound 20-4], the half-maximal inhibitory concentration (IC50) is 1000 to 3000 nM.

`COc1cccc(-c2nc([C@@H]3CCN(C(=O)Nc4ccccc4F)C3)n3ccccc23)c1` [Compound 21-1, (R)—N-(2-fluorophenyl)-3-(1-(3-methoxyphenyl)imidazo[1,5-a]pyridin-3-yl)pyrrolidine-1-carboxamide] yielded an IC50 of 500 to 1000 nM.

Regarding `COc1cccc(-c2nc([C@H]3CCN(C(=O)Nc4ccccc4F)C3)n3ccccc23)c1` [Compound 21-2], the IC50 lay within 1000 to 3000 nM.

With `CNC(=O)N1CCC[C@H]1c1nc(-c2cccc(OC)c2)c2ccccn12` [Compound 21-3], the half-maximal inhibitory concentration (IC50) was > 3000 nM.

On to `CNC(=O)N1CCC[C@@H]1c1nc(-c2cccc(OC)c2)c2ccccn12` [Compound 21-4], for which the IC50 is > 3000 nM.

In the case of `COc1cccc(-c2nc([C@@H]3CCCN3C(=O)Nc3ccc(N(C)C)cc3)n3ccccc23)c1` [Compound 21-5], the IC50 was > 3000 nM.

With `COc1cccc(-c2nc([C@H]3CCCN3C(=O)Nc3ccc(N(C)C)cc3)n3ccccc23)c1` [Compound 21-6], the IC50 was > 3000 nM.

`COc1cccc(-c2nc(C3CCCN3C(=O)Nc3ccccc3F)n3ccccc23)c1` (stereo not shown) [Compound 22-1, N-(2-fluorophenyl)-2-(1-(3-methoxyphenyl)imidazo[1,5-a]pyridin-3-yl)pyrrolidine-1-carboxamide]: the IC50 was in the range of 1000 to 3000 nM.

On to `COc1cccc(-c2nc(C3CN(C(=O)Nc4cccc(N(C)C)c4)C3)n3ccccc23)c1` [Compound 23-1, N-(3-(dimethylamino)phenyl)-3-(1-(3-methoxyphenyl)imidazo[1,5-a]pyridin-3-yl)azetidine-1-carboxamide], for which the IC50 was > 3000 nM.

As for `COc1cccc(-c2nc(C3CN(C(=O)Nc4ccc(N(C)C)cc4)C3)n3ccccc23)c1` [Compound 23-2], the half-maximal inhibitory concentration (IC50) was > 3000 nM.

In turn, `COc1cccc(-c2nn(-c3cccc(C(=O)Nc4ccc(N(C)C)cc4)c3)c3ncccc23)c1` [Compound 24-1, N-(4-(dimethylamino)phenyl)-3-(3-(3-methoxyphenyl)-1H-pyrazolo[3,4-b]pyridin-1-yl)benzamide] came in with an IC50 of 100 to 500 nM.

In the case of `COc1cccc(-c2nn(-c3cccc(C(=O)Nc4cccc(N(C)C)c4)c3)c3ncccc23)c1` [Compound 24-2], the 50% inhibitory concentration (IC50) was 500 to 1000 nM.

In turn, `COc1cccc(-c2nc(-c3ccc(C(=O)Nc4ccc(N(C)C)cc4)s3)n3ccccc23)c1` [Compound 25-1, N-(4-(dimethylamino)phenyl)-5-(1-(3-methoxyphenyl)imidazo[1,5-a]pyridin-3-yl)thiophene-2-carboxamide] registered a concentration for half-maximal inhibition (IC50) of 1000 to 3000 nM.

`COc1cccc(-c2nc(C3CCCN(C(=O)Nc4ccc(N(C)C)cc4)C3)c3ccccn23)c1` (stereo not shown) [Compound 26-1, N-(4-(dimethylamino)phenyl)-3-(3-(3-methoxyphenyl)imidazo[1,5-a]pyridin-1-yl)piperidine-1-carboxamide]: the 50% inhibitory concentration (IC50) is < 100 nM.
